Results taken from PubChem BioAssay AID328 (DTP/NCI, 2004).
Several values for one entry are separate records, joined by “and”; a condition that tells them apart may be missing. Equal entries are not always repeated. Toxic doses and inconclusive results are not listed. Positions of bridges follow the written chain, without caps; N, C: chain ends. Non-standard residues stand in square brackets, D forms with d. Residues, ends and D or L forms follow the SMILES beside them. Aib = CC(C)(N)C(=O)O

System: BDF1 mice, P388 leukemia ip, median survival T/C
Test: NCI In Vivo Anticancer Drug Screen. Data for tumor model P388 Leukemia (intraperitoneal) in B6D2F1 (BDF1) mice
Conditions: endpoint: median survival time, higher = longer survival
Outline: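 Steps: implant the tumour, treat one group with compound and another with vehicle, record survival, then divide treated by control.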

[1] = dose: 200.0 mg/kg/injection, schedule: Q04DX003 (ip), vehicle: saline with Tween-80
[2] = dose: 100.0 mg/kg/injection, schedule: Q04DX003 (ip), vehicle: saline with Tween-80
[3] = dose: 50.0 mg/kg/injection, schedule: Q01DX009 (ip), vehicle: saline with Tween-80
[4] = dose: 100.0 mg/kg/injection, schedule: Q01DX009 (ip), vehicle: saline with Tween-80
[5] = dose: 200.0 mg/kg/injection, schedule: Q01DX009 (ip), vehicle: saline with Tween-80
[6] = dose: 100.0 mg/kg/injection, schedule: Q04DX003 (ip), vehicle: saline sonified
[7] = dose: 200.0 mg/kg/injection, schedule: Q04DX003 (ip), vehicle: saline sonified
[8] = dose: 400.0 mg/kg/injection, schedule: Q04DX003 (ip), vehicle: saline sonified

Q: How did the T/C (dose: 10.0 mg/kg/injection, schedule: Q01DX009 (ip), vehicle: saline) turn out when `COC(CBr)OC` was run?
A: 102 % of control

Q: What about the T/C (dose: 20.0 mg/kg/injection, schedule: Q01DX009 (ip), vehicle: saline) of the same compound?
A: 98 % of control

Q: What about the T/C (dose: 40.0 mg/kg/injection, schedule: Q01DX009 (ip), vehicle: saline) of the same compound?
A: 98 % of control

Q: `O=C(Oc1ccccc1)c1cc(O)c(O)c(O)c1` was tested. Which T/C (dose: 50.0 mg/kg/injection, schedule: Q01DX005 (ip), vehicle: saline with Tween-80) did it give?
A: 100 % of control and 106 % of control

Q: And the T/C (dose: 100.0 mg/kg/injection, schedule: Q01DX005 (ip), vehicle: saline with Tween-80)?
A: 107 % of control and 115 % of control

Q: What about the T/C (dose: 200.0 mg/kg/injection, schedule: Q01DX005 (ip), vehicle: saline with Tween-80) of the same compound?
A: 105 % of control

Q: And the T/C (dose: 400.0 mg/kg/injection, schedule: Q01DX005 (ip), vehicle: saline with Tween-80)?
A: 154 % of control

Q: What does the source list for `Oc1c(Br)ccc2c(O)c(Br)ccc12`?
A: T/C (dose: 132.0 mg/kg/injection, schedule: Q04DX003 (ip), vehicle: saline with Tween-80): 109 % of control; T/C [1]: 114 % of control; T/C (dose: 300.0 mg/kg/injection, schedule: Q04DX003 (ip), vehicle: saline with Tween-80): 95 % of control

Q: For `Cc1ccccc1NC(=O)C1CCC(C)(C(=O)O)C1(C)C` (stereo unspecified), which T/C [2] is on record?
A: 90 % of control

Q: What about the T/C [1] of the same compound?
A: 100 % of control

Q: What about the T/C (dose: 400.0 mg/kg/injection, schedule: Q04DX003 (ip), vehicle: saline with Tween-80) of the same compound?
A: 90 % of control

Q: What does the source list for `S=P(Oc1ccccc1)(N1CC1)N1CC1`?
A: T/C (dose: 100.0 mg/kg/injection, schedule: Q01DX007 (ip), vehicle: DMSO): 88 % of control; T/C (dose: 100.0 mg/kg/injection, schedule: Q04DX003 (ip), vehicle: Klucel (hydroxypropylcellulose) (HPC)): 100 % of control; T/C (dose: 200.0 mg/kg/injection, schedule: Q04DX003 (ip), vehicle: Klucel (hydroxypropylcellulose) (HPC)): 108 % of control; T/C (dose: 400.0 mg/kg/injection, schedule: Q04DX003 (ip), vehicle: Klucel (hydroxypropylcellulose) (HPC)): 100 % of control

Q: Which results are given for `O=C(/C=C/c1ccc(OCc2ccccc2)cc1)c1ccc(Br)cc1`?
A: T/C [3]: 91 % of control; T/C [4]: 86 % of control; T/C [5]: 87 % of control

Q: `COc1ccc(-c2cnc(C(N)=O)c(=O)[nH]2)cc1` was tested. Which T/C [4] did it give?
A: 104 % of control

Q: What about the T/C [5] of the same compound?
A: 108 % of control

Q: What about the T/C (dose: 400.0 mg/kg/injection, schedule: Q01DX009 (ip), vehicle: saline with Tween-80) of the same compound?
A: 100 % of control

Q: Which T/C (dose: 1.25 mg/kg/injection, schedule: Q01DX009 (ip), vehicle: water) does the source give for `CC(C)CC1NC(=O)CNC(=O)C(C)(C)NC(=O)C(C(C)C)NC(=O)C(C)(C)NC(=O)C(CCC(N)=O)NC(=O)C(C)NC(=O)C(C)(C)NC(=O)C(C)NC(=O)C(C)(C)NC(=O)C2CCCN2C(=O)CCC(C(=O)NC(CCC(N)=O)C(=O)O)NC(=O)C(C)(C)NC(=O)C(C)(C)NC(=O)C(C(C)C)NC(=O)C2CCCN2C(=O)C(C)(C)NC1=O` (stereo unspecified) (P[Aib]A[Aib]AQ[Aib]V[Aib]GL[Aib]PV[Aib][Aib]EQ-OH; lactam N-17; configuration not given here) here?
A: 118 % of control

Q: What about the T/C (dose: 2.5 mg/kg/injection, schedule: Q01DX009 (ip), vehicle: water) of the same compound?
A: 102 % of control

Q: With `O=C1NC(=O)C(c2ccc(Cl)cc2)(c2ccccc2Cl)N1` (stereo unspecified) as the compound, how does the T/C [6] read?
A: 100 % of control

Q: And the T/C [7]?
A: 95 % of control

Q: What about the T/C [8] of the same compound?
A: 100 % of control

Q: Which T/C [6] does the source give for `O=C(Nc1ccccc1C(=O)c1ccccn1)c1ccccc1` here?
A: 90 % of control

Q: What about the T/C [7] of the same compound?
A: 90 % of control

Q: And the T/C [8]?
A: 90 % of control

Q: Which results are given for `Cc1csc(NC(O)C(Cl)(Cl)Cl)n1` (stereo unspecified)?
A: T/C [3]: 98 % of control; T/C [4]: 106 % of control; T/C [5]: 101 % of control

Q: For `COC(CN(C)C(=O)NC1CCCCC1)OC`, which T/C (dose: 50.0 mg/kg/injection, schedule: Q04DX003 (ip), vehicle: saline with Tween-80) is on record?
A: 95 % of control

Q: And the T/C [2]?
A: 100 % of control

Q: And the T/C [1]?
A: 100 % of control

Q: For `C/C(=N\NC(N)=O)c1ccc(Cl)cc1`, which T/C (dose: 50.0 mg/kg/injection, schedule: Q01DX009 (ip), vehicle: Klucel (hydroxypropylcellulose) (HPC)) is on record?
A: 94 % of control

Q: And the T/C (dose: 100.0 mg/kg/injection, schedule: Q01DX009 (ip), vehicle: Klucel (hydroxypropylcellulose) (HPC))?
A: 108 % of control

Q: Which T/C (dose: 3.13 mg/kg/injection, schedule: Q01DX009 (ip), vehicle: saline) does the source give for `CCN(CC)CCCCCCNc1cc(OC)c(OC)c2c(C)ccnc12` here?
A: 102 % of control

Q: What about the T/C (dose: 6.25 mg/kg/injection, schedule: Q01DX009 (ip), vehicle: saline) of the same compound?
A: 109 % of control
